Results as given in patent EP0195316A1, “Quinolonecarboxylic acid derivatives” (KYORIN PHARMACEUTICAL CO., LTD., priority 1985, dated 1986).
Converted amounts (≈) assume the structure as drawn. Read-outs that look alike come from different tables or passages of the source.

Legend:
[1] = system: Bacillus subtilis PCI 219; assay: MIC, in vitro antibacterial activity (standard strains); format: cell-based; conditions: PCI219; Bacillus subtilis PCI 219, 10^6 cells/ml, Gram +
[2] = system: Staphylococcus aureus 209 P; assay: as above; format: cell-based; conditions: 10^6 cells/ml, Gram +
[3] = system: S. aureus IID 670 (Terajima); assay: as above; format: cell-based; conditions: Staphylococcus aureus, IID670, 10^6 cells/ml, Gram +
S. epidermidis IID 866 = assay: as above; format: cell-based; conditions: Staphylococcus epidermidis, IID866; S. epidermidis IID 866, 10^6 cells/ml, Gram +
S. pyogenes IID 692 = assay: as above; format: cell-based; conditions: Streptococcus pyogenes, IID692; S. pyogenes IID 692, 10^6 cells/ml, Gram +
E. coli ATCC 10536 = assay: as above; format: cell-based; conditions: Escherichia coli, ATCC10536
[4] = system: Proteus vulgaris IFO 3167; assay: as above; format: cell-based; conditions: Proteus vulgaris, IFO3167
P. morganii IID 602 = assay: as above; format: cell-based; conditions: Morganella morganii, IID602; P. morganii IID 602, 10^6 cells/ml, Gram -
[5] = system: Salmonella enteritidis IID 604; assay: as above; format: cell-based; conditions: Salmonella enterica
[6] = system: Pseudomonas aeruginosa V-1; assay: as above; format: cell-based; conditions: V1; Pseudomonas aeruginosa V-1, 10^6 cells/ml, Gram -
P. aeruginosa IFO 12689 = assay: as above; format: cell-based; conditions: Pseudomonas aeruginosa, IFO12689; P. aeruginosa IFO 12689, 10^6 cells/ml, Gram -
[7] = system: Yersinia enterocolitica IID 981; assay: as above; format: cell-based; conditions: IID981; Yersinia enterocolitica IID 981, 10^6 cells/ml, Gram -
[8] = system: Alcaligenes faecalis 0104002; assay: as above; format: cell-based; conditions: Alcaligenes faecalis 0104002, 10^6 cells/ml, Gram -; read-out: MIC
[9] = system: Bacteroides fragilis GM 7000; assay: as above; format: cell-based; conditions: GM7000; Bacteroides fragilis GM 7000, 10^6 cells/ml, Gram -
[10] = system: Fusobacterium necrophorum S-45; assay: as above; format: cell-based; conditions: S45; Fusobacterium necrophorum S-45, 10^6 cells/ml, Gram -
[11] = system: Eubacterium lentum GAI 5242; assay: as above; format: cell-based; conditions: Eggerthella lenta, GAI5242; Eubacterium lentum GAI 5242, 10^6 cells/ml, Gram +
[12] = system: Peptococcus magnus KY 017; assay: as above; format: cell-based; conditions: Finegoldia magna, KY017; Peptococcus magnus KY 017, 10^6 cells/ml, Gram +
Pst. microns UPI 5464-1 = assay: as above; format: cell-based; conditions: Pst. microns UPI 5464-1, 10^6 cells/ml, Gram +
[13] = system: Veillonella parvula KYA 10790; assay: as above; format: cell-based; conditions: KYA10790; Veillonella parvula KYA 10790, 10^6 cells/ml, Gram -
MR-S. aureus = assay: MIC, in vitro antibacterial activity (clinical isolates); format: cell-based; conditions: Staphylococcus aureus, No. of strains 46
S. pneumoniae = assay: as above; format: cell-based; conditions: Streptococcus pneumoniae; clinical isolates S. pneumoniae, No. of strains 6; read-out: MIC
E. faecalis = assay: as above; format: cell-based; conditions: Enterococcus faecalis, No. of strains 5
H. influenzae = assay: as above; format: cell-based; conditions: Haemophilus influenzae, No. of strains 26
S. marcescens = assay: as above; format: cell-based; conditions: Serratia marcescens, No. of strains 20
P. mirabilis = assay: as above; format: cell-based; conditions: Proteus mirabilis, No. of strains 10
M. morganii = assay: as above; format: cell-based; conditions: Morganella morganii, No. of strains 8
P. aeruginosa = assay: as above; format: cell-based; conditions: Pseudomonas aeruginosa; clinical isolates P. aeruginosa, No. of strains 27; read-out: MIC
Alcaligenes sp. = assay: as above; format: cell-based; conditions: No. of strains 9
Bacteroides sp. = assay: as above; format: cell-based; conditions: No. of strains 17
S. aureus 209 P = format: cell-based
S. marcescens GN 7577 = format: cell-based
P. aeruginosa IFO 1210 = format: cell-based
Bacteroides fragilis 2 = assay: Experimental local infection with anaerobic bacteria in granuloma pouches in rats; format: in vivo; conditions: 25 mg/kg, p.o., pouch exudate, Mean ± S.D. (n=3)
Experimental: Under ether anesthesia, male Wistar rats (7 weeks old) were injected subcutaneously on the back with 20 ml of germ-free air (sterilized by membrane filtration, 0.45 µm pore size) by means of a syringe. Continuously, an inflammatory reaction was induced by injecting one ml of sterile croton oil solution (1 % in olive oil) into the formed air pouch. After 2 days, the air was removed. On the eighth day, 0.5 ml of Bacteroides fragilis 2 culture (10^6 CFU/ml) were injected into bore granuloma pouches. Each compound was administered orally or subcutaneously at 2 hours after infection. […] During experiment, intake of food and water was free. It was known that the activity of the existing quinolonecarboxylic acid compounds against obligate anaerobic bacteria was very weak. […] This property is also one of excellent characters of the present comound.

[14] = S. marcescens GN 7577, Conc. of Drugs 4MIC
[15] = S. marcescens GN 7577, Conc. of Drugs 8MIC
[16] = P. aeruginosa IFO 1210, Conc. of Drugs 2MIC
[17] = P. aeruginosa IFO 1210, Conc. of Drugs 4MIC

Work on `NC1CCN(c2c(F)cc3c(=O)c(C(=O)O)cn(C4CC4)c3c2Cl)C1` (stereo not drawn) [Example 25, 7-(3-Amino-l-pyrrolidinyl)-8-chloro-l-cyclopropyl-6-fluoro-1,4-dihydro-4-oxo-3-quinolinecarboxylic acid] yielded an MIC [1] of 0.025 µg/mL, an MIC [2] of 0.05 µg/mL and an MIC [3] of 0.05 µg/mL. The MIC (S. epidermidis IID 866) was 0.05 µg/mL, the MIC (S. pyogenes IID 692) was 0.1 µg/mL and the MIC (E. coli ATCC 10536) was 0.0125 µg/mL (≈ 0.0342 µM). For the same molecule, the MIC [4] was 0.0125 µg/mL (≈ 0.0342 µM), the MIC (P. morganii IID 602) was 0.05 µg/mL (≈ 0.137 µM) and the MIC [5] was 0.0125 µg/mL (≈ 0.0342 µM). For the same molecule, the MIC [6] was 0.2 µg/mL (≈ 0.547 µM), the MIC (P. aeruginosa IFO 12689) was 0.2 µg/mL (≈ 0.547 µM) and the MIC [7] was 0.025 µg/mL (≈ 0.0683 µM). The MIC [8] was 0.05 µg/mL (≈ 0.137 µM), the MIC [9] was 0.1 µg/mL (≈ 0.273 µM) and the MIC [10] was 0.2 µg/mL (≈ 0.547 µM). It also gave an MIC [11] of 0.1 µg/mL, an MIC [12] of 0.05 µg/mL and an MIC (Pst. microns UPI 5464-1) of 0.05 µg/mL. The MIC [13] was 0.05 µg/mL (≈ 0.137 µM), the MIC (MR-S. aureus) was 0.1 µg/mL (≈ 0.273 µM) and the MIC (S. pneumoniae) was 0.1 µg/mL (≈ 0.273 µM). It also gave an MIC (E. faecalis) of 0.2 µg/mL (≈ 0.547 µM), an MIC (H. influenzae) of 0.013 µg/mL (≈ 0.0355 µM) and an MIC (S. marcescens) of 0.05 µg/mL (≈ 0.137 µM). The MIC (P. mirabilis) was 0.05 µg/mL (≈ 0.137 µM), the MIC (M. morganii) was 0.025 µg/mL (≈ 0.0683 µM) and the MIC (P. aeruginosa) was 0.2 µg/mL (≈ 0.547 µM). For the same molecule, the MIC (Alcaligenes sp.) was 0.78 µg/mL (≈ 2.13 µM), the MIC (Bacteroides sp.) was 0.1 µg/mL (≈ 0.273 µM) and the “Frequency of spontaneous resistant mutants” value (“Frequency” for short) (S. aureus 209 P; Conc. of Drugs 2MIC) was 2.9 × 10^-8. For the same molecule, the “Frequency” value (S. aureus 209 P; Conc. of Drugs 4MIC) was <2.9 × 10^-9, the “Frequency” value (S. marcescens GN 7577; S. marcescens GN 7577, Conc. of Drugs 2MIC) was 2.3 × 10^-7 and the “Frequency” value (S. marcescens GN 7577; [14]) was <5.3 × 10^-10. The “Frequency” value (S. marcescens GN 7577; [15]) was <5.3 × 10^-10, the “Frequency” value (P. aeruginosa IFO 1210; [16]) was <6.7 × 10^-10 and the “Frequency” value (P. aeruginosa IFO 1210; [17]) was <6.7 × 10^-10. The “Viable cells count (log) / ml” value (Bacteroides fragilis 2; 6 hr) was 4.6 ± 0.31 (log) / ml and the “Viable cells count (log) / ml” value (Bacteroides fragilis 2; 24 hr) was 4.5 ± 0.15 (log) / ml.
`CC1CN(c2c(F)cc3c(=O)c(C(=O)O)cn(C4CC4)c3c2Cl)CCN1` (centres unmarked) [Ref.2, 8-Chloro-1-cyclopropyl-6-fluoro-1,4-dihydro-7-(3-methyl-1-piperazinyl)-4-oxo-3-quinolinecarboxylic acid] gave an MIC [1] of 0.025 µg/mL, an MIC [2] of 0.1 µg/mL and an MIC [3] of 0.1 µg/mL. The MIC (S. epidermidis IID 866) was 0.1 µg/mL, the MIC (S. pyogenes IID 692) was 0.78 µg/mL and the MIC (E. coli ATCC 10536) was 0.0125 µg/mL (≈ 0.0329 µM). It also gave an MIC [4] of 0.0125 µg/mL (≈ 0.0329 µM), an MIC (P. morganii IID 602) of 0.05 µg/mL (≈ 0.132 µM) and an MIC ([5]; Salmonella enteritidis IID 604, 10^6 cells/ml, Gram -, read-out: MIC) of 0.05 µg/mL (≈ 0.132 µM). For the same molecule, the MIC [6] was 0.2 µg/mL (≈ 0.527 µM), the MIC (P. aeruginosa IFO 12689) was 1.56 µg/mL (≈ 4.11 µM) and the MIC [7] was 0.05 µg/mL (≈ 0.132 µM). The MIC [8] was 0.2 µg/mL (≈ 0.527 µM), the MIC [9] was 0.39 µg/mL (≈ 1.03 µM) and the MIC [10] was 0.39 µg/mL (≈ 1.03 µM). It also gave an MIC [11] of 0.2 µg/mL, an MIC [12] of 0.2 µg/mL and an MIC (Pst. microns UPI 5464-1) of 0.2 µg/mL. The MIC [13] was 0.2 µg/mL (≈ 0.527 µM), the MIC (MR-S. aureus) was 0.39 µg/mL (≈ 1.03 µM) and the MIC (S. pneumoniae) was 0.78 µg/mL (≈ 2.05 µM). It also gave an MIC (E. faecalis) of 0.78 µg/mL (≈ 2.05 µM), an MIC (H. influenzae) of 0.025 µg/mL (≈ 0.0658 µM) and an MIC (S. marcescens) of 0.05 µg/mL (≈ 0.132 µM). It also gave an MIC (P. mirabilis) of 0.05 µg/mL (≈ 0.132 µM), an MIC (M. morganii) of 0.1 µg/mL (≈ 0.263 µM) and an MIC (P. aeruginosa) of 1.56 µg/mL (≈ 4.11 µM). The MIC (Alcaligenes sp.) was 6.25 µg/mL (≈ 16.5 µM), the MIC (Bacteroides sp.) was 0.39 µg/mL (≈ 1.03 µM) and the “Frequency” value (S. aureus 209 P; Conc. of Drugs 4MIC) was 5.1 × 10^-8. For the same molecule, the “Frequency” value (S. marcescens GN 7577; [14]) was 9.9 × 10^-7, the “Frequency” value (S. marcescens GN 7577; [15]) was 2.1 × 10^-9 and the “Frequency” value (P. aeruginosa IFO 1210; [16]) was 7.7 × 10^-8. For the same molecule, the “Frequency” value (P. aeruginosa IFO 1210; [17]) was <6.7 × 10^-10, the “Viable cells count (log) / ml” value (Bacteroides fragilis 2; 6 hr) was 5.1 ± 0.21 (log) / ml and the “Viable cells count (log) / ml” value (Bacteroides fragilis 2; 24 hr) was 4.5 ± 0.55 (log) / ml.
